Results reported in US20260262643A1, “HERBICIDAL BENZOXAZINES” (FMC CORPORATION, priority 2022, published 2026).

Experiments:
corn [1] = test: Test C postemergence; format: in vivo, Zea mays; conditions: 10 days, 0 to 100 scale (0 no effect, 100 complete control)
Outline: (§1)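 Seeds sown in loam soil–sand blend received a directed preemergence soil spray of test chemical in non-phytotoxic solvent with surfactant; postemergence plants (2–10 cm, one- to two-leaf stage) were sprayed with the same formulation. Greenhouse-held 10 days, then visually rated for injury versus untreated controls, 0 (no effect) to 100 (complete control).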

galium = test: Test C postemergence; format: in vivo, Galium aparine; conditions: 10 days, 0 to 100 scale (0 no effect, 100 complete control)
Outline: as §1

ragweed [2] = test: Test C preemergence; format: in vivo, Ambrosia artemisiifolia; conditions: for Ragweed plant response rating: preemergence, 0 to 100 scale (0 no effect, 100 complete control)
Outline: as §1

sedge, umbrella = test: Test D flooded paddy test; format: in vivo, Cyperus difformis; conditions: 250 g ai/ha, applied to paddy water, visual rating after 13 to 14 days, scale 0 to 100 (0 no effect, 100 complete control)
Outline: (§2)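 Seedlings reached the 2-leaf stage, then pots were flooded to 3 cm over the soil surface. Compound was applied into the water, depth was maintained, and plants stayed in the greenhouse 13 to 14 days before visual scoring (0–100) relative to controls.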

wheat [3] = test: Test C preemergence; format: in vivo, Triticum aestivum; conditions: for Wheat plant response rating: preemergence, 0 to 100 scale (0 no effect, 100 complete control)
Outline: as §1

barnyardgrass [4] = test: Test C postemergence; format: in vivo, Echinochloa crusgalli; conditions: 10 days, 0 to 100 scale (0 no effect, 100 complete control)
Outline: as §1

barnyardgrass [5] = test: Test D flooded paddy test; format: in vivo, Echinochloa crus-galli; conditions: 250 g ai/ha, applied to paddy water, visual rating after 13 to 14 days, scale 0 to 100 (0 no effect, 100 complete control)
Outline: as §2

oat, wild [6] = test: Test C postemergence; format: in vivo, Avena fatua; conditions: 10 days, 0 to 100 scale (0 no effect, 100 complete control)
Outline: as §1

kochia [7] = test: Test C preemergence; format: in vivo, Bassia scoparia; conditions: for Kochia plant response rating: preemergence, 0 to 100 scale (0 no effect, 100 complete control)
Outline: as §1

ragweed [8] = test: Test C postemergence; format: in vivo, Ambrosia artemisiifolia; conditions: 10 days, 0 to 100 scale (0 no effect, 100 complete control)
Outline: as §1

soybean [9] = test: Test C preemergence; format: in vivo, Glycine max; conditions: for Soybean plant response rating: preemergence, 0 to 100 scale (0 no effect, 100 complete control)
Outline: as §1

corn [10] = test: Test C preemergence; format: in vivo, Zea mays; conditions: for Corn plant response rating: preemergence, 0 to 100 scale (0 no effect, 100 complete control)
Outline: as §1

horseweed = test: Test C postemergence; format: in vivo, Erigeron canadensis; conditions: 10 days, 0 to 100 scale (0 no effect, 100 complete control)
Outline: as §1

wheat [11] = test: Test C postemergence; format: in vivo, Triticum aestivum; conditions: 10 days, 0 to 100 scale (0 no effect, 100 complete control)
Outline: as §1

ryegrass, Italian [12] = test: Test C postemergence; format: in vivo, Lolium multiflorum; conditions: 10 days, 0 to 100 scale (0 no effect, 100 complete control)
Outline: as §1

oat, wild [13] = test: Test C preemergence; format: in vivo, Avena fatua; conditions: for Oat, Wild plant response rating: preemergence, 0 to 100 scale (0 no effect, 100 complete control)
Outline: as §1

soybean [14] = test: Test C postemergence; format: in vivo, Glycine max; conditions: 10 days, 0 to 100 scale (0 no effect, 100 complete control)
Outline: as §1

rice = test: Test D flooded paddy test; format: in vivo, Oryza sativa; conditions: 250 g ai/ha, applied to paddy water, visual rating after 13 to 14 days, scale 0 to 100 (0 no effect, 100 complete control)
Outline: as §2

pigweed, palmer [15] = test: Test C postemergence; format: in vivo, Amaranthus palmeri; conditions: 10 days, 0 to 100 scale (0 no effect, 100 complete control)
Outline: as §1

pigweed, palmer [16] = test: Test C preemergence; format: in vivo, Amaranthus palmeri; conditions: preemergence, 0 to 100 scale (0 no effect, 100 complete control)
Outline: as §1

ducksalad = test: Test D flooded paddy test; format: in vivo, Heteranthera limosa; conditions: 250 g ai/ha, applied to paddy water, visual rating after 13 to 14 days, scale 0 to 100 (0 no effect, 100 complete control)
Outline: as §2

ryegrass, Italian [17] = test: Test C preemergence; format: in vivo, Lolium multiflorum; conditions: preemergence, 0 to 100 scale (0 no effect, 100 complete control)
Outline: as §1

green foxtail [18] = test: Test C preemergence; format: in vivo, Setaria viridis; conditions: for Foxtail, Green plant response rating: preemergence, 0 to 100 scale (0 no effect, 100 complete control)
Outline: as §1

kochia [19] = test: Test C postemergence; format: in vivo, Bassia scoparia; conditions: 10 days, 0 to 100 scale (0 no effect, 100 complete control)
Outline: as §1

blackgrass [20] = test: Test C postemergence; format: in vivo, Alopecurus myosuroides; conditions: 10 days, 0 to 100 scale (0 no effect, 100 complete control)
Outline: as §1

green foxtail [21] = test: Test C postemergence; format: in vivo, Setaria viridis; conditions: 10 days, 0 to 100 scale (0 no effect, 100 complete control)
Outline: as §1

barnyardgrass [22] = test: Test C preemergence; format: in vivo, Echinochloa crusgalli; conditions: for Barnyardgrass plant response rating: preemergence, 0 to 100 scale (0 no effect, 100 complete control)
Outline: as §1

blackgrass [23] = test: Test C preemergence; format: in vivo, Alopecurus myosuroides; conditions: for Blackgrass plant response rating: preemergence, 0 to 100 scale (0 no effect, 100 complete control)
Outline: as §1

[24] = Preemergence, 125 g ai/ha, 0 to 100 scale, 0 no effect, 100 complete control

COc1ncn(-c2cccc(C(=O)N3C[C@H](C)Oc4c(C)cccc43)c2)n1 [Compound 307]
Plant response rating, Corn (corn [1]; 500 g ai/ha, postemergence): 50 | Plant response rating, Corn (corn [1]; Postemergence, 125 g ai/ha): 10 | Plant response rating, Galium (galium; 500 g ai/ha, postemergence): 90 | Plant response rating, Galium (galium; Postemergence, 125 g ai/ha): 80 | Ragweed plant response rating (ragweed [2]; 500 g ai/ha): 50 | Ragweed plant response rating (ragweed [2]; Test C, 125 g ai/ha): 0 | Plant response rating, Sedge, Umbrella (Flood) (sedge, umbrella): 0 | Wheat plant response rating (wheat [3]; 500 g ai/ha): 90 | Wheat plant response rating (wheat [3]; Test C, 125 g ai/ha): 10 | Plant response rating, Barnyardgrass (barnyardgrass [4]; 500 g ai/ha, postemergence): 80 | Plant response rating, Barnyardgrass (barnyardgrass [4]; Postemergence, 125 g ai/ha): 50 | Plant response rating, Barnyardgrass (Flood) (barnyardgrass [5]): 0 | Plant response rating, Oat, Wild (oat, wild [6]; 500 g ai/ha, postemergence): 80 | Plant response rating, Oat, Wild (oat, wild [6]; Postemergence, 125 g ai/ha): 20 | Kochia plant response rating (kochia [7]; 500 g ai/ha): 80 | Kochia plant response rating (kochia [7]; Test C, 125 g ai/ha): 40 | Plant response rating, Ragweed (ragweed [8]; 500 g ai/ha, postemergence): 50 | Plant response rating, Ragweed (ragweed [8]; Postemergence, 125 g ai/ha): 0 | Soybean plant response rating (soybean [9]; 500 g ai/ha): 100 | Soybean plant response rating (soybean [9]; Test C, 125 g ai/ha): 20 | Corn plant response rating (corn [10]; 500 g ai/ha): 10 | Corn plant response rating (corn [10]; Test C, 125 g ai/ha): 0 | Plant response rating, Horseweed (horseweed; 500 g ai/ha, postemergence): 30 | Plant response rating, Horseweed (horseweed; Postemergence, 125 g ai/ha): 20 | Plant response rating, Wheat (wheat [11]; 500 g ai/ha, postemergence): 80 | Plant response rating, Wheat (wheat [11]; Postemergence, 125 g ai/ha): 10 | Plant response rating, Ryegrass, Italian (ryegrass, Italian [12]; 500 g ai/ha, postemergence): 70 | Plant response rating, Ryegrass, Italian (ryegrass, Italian [12]; Postemergence, 125 g ai/ha): 60 | Oat, Wild plant response rating (oat, wild [13]; 500 g ai/ha): 90 | Oat, Wild plant response rating (oat, wild [13]; Test C, 125 g ai/ha): 50 | Plant response rating, Soybean (soybean [14]; 500 g ai/ha, postemergence): 100 | Plant response rating, Soybean (soybean [14]; Postemergence, 125 g ai/ha): 100 | Plant response rating, Rice (Flood) (rice): 0 | Plant response rating, Pigweed, Palmer (pigweed, palmer [15]; 500 g ai/ha, postemergence): 50 | Plant response rating, Pigweed, Palmer (pigweed, palmer [15]; Postemergence, 125 g ai/ha): 20 | Pigweed, Palmer plant response rating (pigweed, palmer [16]; 500 g ai/ha): 100 | Pigweed, Palmer plant response rating (pigweed, palmer [16]; Test C, 125 g ai/ha): 60 | Plant response rating, Ducksalad (Flood) (ducksalad): 0 | Ryegrass, Italian plant response rating (ryegrass, Italian [17]; 500 g ai/ha): 80 | Ryegrass, Italian plant response rating (ryegrass, Italian [17]; Test C, 125 g ai/ha): 80 | Foxtail, Green plant response rating (green foxtail [18]; 500 g ai/ha): 100 | Foxtail, Green plant response rating (green foxtail [18]; Test C, 125 g ai/ha): 100 | Plant response rating, Kochia (kochia [19]; 500 g ai/ha, postemergence): 70 | Plant response rating, Kochia (kochia [19]; Postemergence, 125 g ai/ha): 40 | Plant response rating, Blackgrass (blackgrass [20]; 500 g ai/ha, postemergence): 90 | Plant response rating, Blackgrass (blackgrass [20]; Postemergence, 125 g ai/ha): 70 | Plant response rating, Foxtail, Green (green foxtail [21]; 500 g ai/ha, postemergence): 90 | Plant response rating, Foxtail, Green (green foxtail [21]; Postemergence, 125 g ai/ha): 60 | Barnyardgrass plant response rating (barnyardgrass [22]; 500 g ai/ha): 90 | Barnyardgrass plant response rating (barnyardgrass [22]; Test C, 125 g ai/ha): 40 | Blackgrass plant response rating (blackgrass [23]; 500 g ai/ha): 80 | Blackgrass plant response rating (blackgrass [23]; Test C, 125 g ai/ha): 40

Cc1ncc(-c2cccc(C(=O)N3C[C@H](C)Oc4c(Cl)cccc43)c2)o1 [Compound 352]
Plant response rating, Corn (corn [1]; 500 g ai/ha, postemergence): 0 | Plant response rating, Corn (corn [1]; Postemergence, 125 g ai/ha): 0 | Plant response rating, Galium (galium; 500 g ai/ha, postemergence): 50 | Plant response rating, Galium (galium; Postemergence, 125 g ai/ha): 60 | Ragweed plant response rating (ragweed [2]; 500 g ai/ha): 0 | Plant response rating, Ragweed (ragweed [2]; [24]): 40 | Plant response rating, Sedge, Umbrella (Flood) (sedge, umbrella): 0 | Wheat plant response rating (wheat [3]; 500 g ai/ha): 0 | Plant response rating, Wheat (wheat [3]; [24]): 0 | Plant response rating, Barnyardgrass (barnyardgrass [4]; 500 g ai/ha, postemergence): 10 | Plant response rating, Barnyardgrass (barnyardgrass [4]; Postemergence, 125 g ai/ha): 10 | Plant response rating, Barnyardgrass (Flood) (barnyardgrass [5]): 0 | Plant response rating, Oat, Wild (oat, wild [6]; 500 g ai/ha, postemergence): 0 | Plant response rating, Oat, Wild (oat, wild [6]; Postemergence, 125 g ai/ha): 0 | Kochia plant response rating (kochia [7]; 500 g ai/ha): 0 | Plant response rating, Kochia (kochia [7]; [24]): 0 | Plant response rating, Ragweed (ragweed [8]; 500 g ai/ha, postemergence): 20 | Plant response rating, Ragweed (ragweed [8]; Postemergence, 125 g ai/ha): 20 | Soybean plant response rating (soybean [9]; 500 g ai/ha): 0 | Plant response rating, Soybean (soybean [9]; [24]): 0 | Corn plant response rating (corn [10]; 500 g ai/ha): 0 | Plant response rating, Corn (corn [10]; [24]): 0 | Plant response rating, Horseweed (horseweed; 500 g ai/ha, postemergence): 10 | Plant response rating, Horseweed (horseweed; Postemergence, 125 g ai/ha): 0 | Plant response rating, Wheat (wheat [11]; 500 g ai/ha, postemergence): 10 | Plant response rating, Wheat (wheat [11]; Postemergence, 125 g ai/ha): 10 | Plant response rating, Ryegrass, Italian (ryegrass, Italian [12]; 500 g ai/ha, postemergence): 10 | Plant response rating, Ryegrass, Italian (ryegrass, Italian [12]; Postemergence, 125 g ai/ha): 10 | Oat, Wild plant response rating (oat, wild [13]; 500 g ai/ha): 0 | Plant response rating, Oat, Wild (oat, wild [13]; [24]): 0 | Plant response rating, Soybean (soybean [14]; 500 g ai/ha, postemergence): 90 | Plant response rating, Soybean (soybean [14]; Postemergence, 125 g ai/ha): 80 | Plant response rating, Rice (Flood) (rice): 0 | Plant response rating, Pigweed, Palmer (pigweed, palmer [15]; 500 g ai/ha, postemergence): 20 | Pigweed, Palmer plant response rating (pigweed, palmer [16]; 500 g ai/ha): 10 | Plant response rating, Ducksalad (Flood) (ducksalad): 0 | Ryegrass, Italian plant response rating (ryegrass, Italian [17]; 500 g ai/ha): 40 | Foxtail, Green plant response rating (green foxtail [18]; 500 g ai/ha): 40 | Plant response rating, Foxtail, Green (green foxtail [18]; [24]): 0 | Plant response rating, Kochia (kochia [19]; 500 g ai/ha, postemergence): 50 | Plant response rating, Kochia (kochia [19]; Postemergence, 125 g ai/ha): 40 | Plant response rating, Blackgrass (blackgrass [20]; 500 g ai/ha, postemergence): 0 | Plant response rating, Blackgrass (blackgrass [20]; Postemergence, 125 g ai/ha): 0 | Plant response rating, Foxtail, Green (green foxtail [21]; 500 g ai/ha, postemergence): 10 | Plant response rating, Foxtail, Green (green foxtail [21]; Postemergence, 125 g ai/ha): 20 | Barnyardgrass plant response rating (barnyardgrass [22]; 500 g ai/ha): 0 | Plant response rating, Barnyardgrass (barnyardgrass [22]; [24]): 0 | Blackgrass plant response rating (blackgrass [23]; 500 g ai/ha): 0 | Plant response rating, Blackgrass (blackgrass [23]; [24]): 0
